How the values were obtained:
UGT8 [1] = target: T1, UGT8 (Homo sapiens, UniProt Q16880); test: In vitro sulfatide (SFT) synthesis inhibition in OE19 cells, LC-MS/MS readout; type: cell-based; details: 72 hr, sulfatide by LC-MS/MS, read-out: Potency range (IC50, In-vitro SFT)
T1 construct: host or cells: OE19 cells
T1 sequence (Q16880 21-541): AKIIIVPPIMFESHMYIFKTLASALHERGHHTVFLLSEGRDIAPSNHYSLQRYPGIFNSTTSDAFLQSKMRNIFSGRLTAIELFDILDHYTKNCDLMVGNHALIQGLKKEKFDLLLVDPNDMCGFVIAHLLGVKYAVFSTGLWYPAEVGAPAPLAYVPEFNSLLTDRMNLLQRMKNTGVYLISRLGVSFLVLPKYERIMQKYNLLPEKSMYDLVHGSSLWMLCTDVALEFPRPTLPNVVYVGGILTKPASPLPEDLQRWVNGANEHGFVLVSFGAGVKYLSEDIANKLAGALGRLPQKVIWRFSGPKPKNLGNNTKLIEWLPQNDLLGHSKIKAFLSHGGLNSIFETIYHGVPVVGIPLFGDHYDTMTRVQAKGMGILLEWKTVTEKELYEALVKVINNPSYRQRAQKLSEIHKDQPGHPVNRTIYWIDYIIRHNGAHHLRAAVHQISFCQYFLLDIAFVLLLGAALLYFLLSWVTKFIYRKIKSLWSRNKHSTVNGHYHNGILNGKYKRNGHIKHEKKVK
In short: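 OE19 cells, 2,500/well, exposed to compound dose-downs in triplicate for 72 hr at 37° C (screening at 10 μM final). Sulfatide quantified by LC-MS/MS (C8 UPLC, isocratic, negative-ion MRM) with C17 SFT internal standard; IC50 from concentration-response curves.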

UGT8 [2] = target: T2, UGT8 (Mus musculus, UniProt Q64676); test: Acute in vivo target engagement in mouse kidney: inhibition of de novo GalCer and SFT synthesis (13C-Gal incorporation); details: 5 hr
T2 construct: Groups of 5 male C57Bl/6 mice, 6-9 wks of age (Charles River Laboratories); tissue Charles River Laboratories; host or cells: mouse kidney (adult C57Bl/6) and mid-/hind brain (neonatal P14-P21 mice)
T2 sequence (Q64676 21-541): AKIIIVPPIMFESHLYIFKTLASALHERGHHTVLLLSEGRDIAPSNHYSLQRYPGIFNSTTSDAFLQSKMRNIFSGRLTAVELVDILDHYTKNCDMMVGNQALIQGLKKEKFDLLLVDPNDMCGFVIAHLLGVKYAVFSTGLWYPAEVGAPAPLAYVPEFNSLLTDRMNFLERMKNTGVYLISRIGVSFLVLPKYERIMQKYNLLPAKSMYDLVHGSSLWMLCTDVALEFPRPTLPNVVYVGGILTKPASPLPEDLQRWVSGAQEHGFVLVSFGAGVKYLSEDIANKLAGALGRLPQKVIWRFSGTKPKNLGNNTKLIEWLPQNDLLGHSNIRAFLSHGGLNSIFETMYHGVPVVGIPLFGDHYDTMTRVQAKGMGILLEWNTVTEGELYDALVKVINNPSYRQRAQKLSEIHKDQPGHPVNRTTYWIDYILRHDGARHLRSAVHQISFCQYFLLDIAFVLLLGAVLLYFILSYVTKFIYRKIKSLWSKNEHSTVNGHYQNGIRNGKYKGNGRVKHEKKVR
Procedure: In vivo target engagement was initially assessed in an adult mouse kidney model assessing de novo synthesis inhibition. This model was selected because the high rate of GalCer and SFT synthesis and turnover in kidney facilitated development of an acute one-day model assessing the effect of a single administration of compound at different doses. Inhibition of de novo synthesis was determined by measuring the amount of 13C6 galactose (13C-Gal; CIL, cat #CLM-1570-pk) incorporated into GalCer and SFT.
Groups of 5 male C57Bl/6 mice, 6-9 wks of age (Charles River Laboratories) were maintained in an ALAAC-accredited vivarium with food and water ad libitum and were allowed to acclimate one week before initiating studies. Three to 5 dose groups received test article formulated in a clinically-acceptable formulation, administered by oral gavage; the control group received vehicle alone. One hr after administration of test article, animals received an intraperitoneal (i.p.) injection of 13C-Gal (3 g/kg); 5 hr after administration of test article, animals were euthanized and a kidney was removed and divided into two longitudinal samples that were snap-frozen and stored at −80° C. until processing for test article tissue exposure and lipid analysis (GalCer and SFT). Typically, brain and plasma samples were also collected for test article exposure.
(§1) Mass Spectrometer Analysis of SFT
(§2) Quantitative analysis of sphingolipids (SLs) was performed using liquid chromatography with tandem mass spectrometry analysis (LC-MS/MS). Briefly, to extract glucosylceramide (GlcCer), galactosylceramide (GalCer), and sulfatide (ST), an aliquot of 10 μL of mouse tissue homogenate (100 mg/ml in water) was mixed with 1 mL of extraction solution (0.2% Formic Acid; 5 mM Ammonium formate in (50:50) Methanol:Acetonitrile (v/v) with internal standards (IS)). C17-ST and D35 labeled C18-GalCer were used for IS. The mixtures were vortexed and centrifuged. The resulting supernatants were transferred to HPLC vials for LC-MS/MS analysis. GlcCer and GalCer were separated using a Waters Acquity UPLC and Atlantis HILIC Silica column (2.1 mm×150 mm, […], Waters Corp., Milford, Mass.) and analyzed by an API 5000 triple quadrupole mass spectrometer in MRM mode (Applied Biosystems, Foster City, Calif.). ST were analyzed using a Waters Acquity UPLC and BEH C18 column (2.1 mm×50 mm, […], Waters Corp., Milford, Mass.) and analyzed by an API 6500 triple quadrupole mass spectrometer in MRM mode (Applied Biosystems, Foster City, Calif.).

UGT8 [3] = target: T2, UGT8; test: Acute in vivo target engagement in neonatal mouse brain: inhibition of de novo GalCer and SFT synthesis (13C-Gal incorporation); details: neonatal mouse (P14-P21) brain, 5 hr
Text: SFT biosynthesis and turnover in the myelin of adult mice is very low, necessitating development of a short-term acute model of de novo synthesis inhibition. To do this, we took advantage of the fact that unlike primates in which most developmental myelination occurs in utero, in rodents, peak myelination occurs between postnatal day 14 (P14) and P22.
Groups of 5 neonatal mice age-matched between P14 and P21 received test article formulated in a clinically-acceptable formulation, administered by oral gavage; the control group received vehicle alone. One hr after administration of test article, animals received an i.p. injection of 13C-Gal (3 g/kg); 5 hr after administration of test article, animals were euthanized, brains were removed and dissected for recovery of mid- and hind brain which was snap-frozen and stored at −80° C. until analysis. Plasma samples were also collected for test article exposure analysis.
as §1, §2

## CNC(=O)c1csc2c(C(F)(F)F)cc(N3CCC(OC(=O)N[C@@H](C)COC(F)(F)F)CC3)nc12 [Example 90, 1-(3-(Methylcarbamoyl)-7-(trifluoromethyl)thieno[3,2-b]pyridin-5-yl)piperidin-4-yl (S)-(1-(trifluoromethoxy)propan-2-yl)carbamate]
UGT8 [1]
  IC50: < 100 nM
UGT8 [2]; single oral dose 0.3 mg/kg
  kidney GalCer % inh: C (C < 40%)
  kidney Sulfatide % inh: C (C < 40%)
UGT8 [2]; single oral dose 1 mg/kg
  kidney GalCer % inh: C (C < 40%)
  kidney Sulfatide % inh: B (40% < B < 80%)
UGT8 [2]; single oral dose 3 mg/kg
  kidney GalCer % inh: A (A > 80%)
  kidney Sulfatide % inh: A (A > 80%)
UGT8 [2]; single oral dose 10 mg/kg
  kidney GalCer % inh: A (A > 80%)
  kidney Sulfatide % inh: A (A > 80%)
UGT8 [2]; single oral dose 30 mg/kg
  kidney GalCer % inh: A (A > 80%)
  kidney Sulfatide % inh: A (A > 80%)
UGT8 [3]; single oral dose 3 mg/kg
  brain GalCer % inh: A, A, A (A > 80%)
  brain Sulfatide % inh: A, A, A (A > 80%)
UGT8 [3]; single oral dose 10 mg/kg
  brain GalCer % inh: A, A, A (A > 80%)
  brain Sulfatide % inh: A, A, A (A > 80%)
UGT8 [3]; single oral dose 30 mg/kg
  brain GalCer % inh: A, A, A (A > 80%)
  brain Sulfatide % inh: A, A, A (A > 80%)

## CNC(=O)c1csc2c(C(F)(F)F)cc(N3CCC(OC(=O)N[C@@H](C)C4CC4)CC3)nc12 [Example 109, 1-(3-(Methylcarbamoyl)-7-(trifluoromethyl)thieno[3,2-b]pyridin-5-yl)piperidin-4-yl (S)-(1-cyclopropylethyl)carbamate]
UGT8 [1]
  IC50: < 100 nM
UGT8 [2]; single oral dose 5 mg/kg
  kidney GalCer % inh: C (C < 40%)
UGT8 [2]; single oral dose 10 mg/kg
  kidney GalCer % inh: B (40% < B < 80%)
UGT8 [2]; single oral dose 50 mg/kg
  kidney GalCer % inh: A (A > 80%)
UGT8 [3]; single oral dose 10 mg/kg
  brain GalCer % inh: B, B, B (40% < B < 80%)
  brain Sulfatide % inh: A, A, A (A > 80%)
UGT8 [3]; single oral dose 30 mg/kg
  brain GalCer % inh: B, B, B (40% < B < 80%)
  brain Sulfatide % inh: A, A, A (A > 80%)
UGT8 [3]; single oral dose 100 mg/kg
  brain GalCer % inh: B, B, B (40% < B < 80%)
  brain Sulfatide % inh: A, A, A (A > 80%)

## CNC(=O)c1csc2c(C(F)(F)F)cc(O[C@@H]3CCN(C(=O)OCCOC(F)(F)F)[C@H](C)C3)nc12 [Example 375, 2-(Trifluoromethoxy)ethyl (2R,4R)-2-methyl-4-((3-(methylcarbamoyl)-7-(trifluoromethyl)thieno[3,2-b]pyridin-5-yl)oxy)piperidine-1-carboxylate]
UGT8 [1]
  IC50: < 100 nM
UGT8 [2]; single oral dose 1 mg/kg
  kidney GalCer % inh: C (C < 40%)
  kidney Sulfatide % inh: C (C < 40%)
UGT8 [2]; single oral dose 3 mg/kg
  kidney GalCer % inh: C (C < 40%)
  kidney Sulfatide % inh: C (C < 40%)
UGT8 [2]; single oral dose 10 mg/kg
  kidney GalCer % inh: B (40% < B < 80%)
  kidney Sulfatide % inh: B (40% < B < 80%)
UGT8 [2]; single oral dose 30 mg/kg
  kidney GalCer % inh: A (A > 80%)
  kidney Sulfatide % inh: A (A > 80%)
UGT8 [2]; single oral dose 100 mg/kg
  kidney GalCer % inh: A (A > 80%)
  kidney Sulfatide % inh: A (A > 80%)
UGT8 [3]; single oral dose 1 mg/kg
  brain GalCer % inh: B (40% < B < 80%)
  brain Sulfatide % inh: B (40% < B < 80%)
UGT8 [3]; single oral dose 3 mg/kg
  brain GalCer % inh: B (40% < B < 80%)
  brain Sulfatide % inh: B (40% < B < 80%)
UGT8 [3]; single oral dose 10 mg/kg
  brain GalCer % inh: A (A > 80%)
  brain Sulfatide % inh: A (A > 80%)

## CNC(=O)c1csc2c(C(F)(F)F)cc(N3CCC(OC(=O)NC4CC4)CC3)nc12 [Example 473, 1-(3-(Methylcarbamoyl)-7-(trifluoromethyl)thieno[3,2-b]pyridin-5-yl)piperidin-4-yl cyclopropylcarbamate]
UGT8 [1]
  IC50: < 100 nM
UGT8 [2]; single oral dose 3 mg/kg
  kidney GalCer % inh: C (C < 40%)
  kidney Sulfatide % inh: C (C < 40%)
UGT8 [2]; single oral dose 10 mg/kg
  kidney GalCer % inh: C (C < 40%)
  kidney Sulfatide % inh: B (40% < B < 80%)
UGT8 [2]; single oral dose 50 mg/kg
  kidney GalCer % inh: B (40% < B < 80%)
  kidney Sulfatide % inh: A (A > 80%)
UGT8 [3]; single oral dose 10 mg/kg
  brain GalCer % inh: A, A, A (A > 80%)
  brain Sulfatide % inh: A, A, A (A > 80%)
UGT8 [3]; single oral dose 30 mg/kg
  brain GalCer % inh: A, A, A (A > 80%)
  brain Sulfatide % inh: A, A, A (A > 80%)
UGT8 [3]; single oral dose 100 mg/kg
  brain GalCer % inh: A, A, A (A > 80%)
  brain Sulfatide % inh: A, A, A (A > 80%)

From patent publication US11098056B2, “UDP glycosyltransferase inhibitors and methods of use” (GENZYME CORPORATION, priority 2018, dated 2021)
